Experimental data as given in publication PMC3632402 (Analytical biochemistry, 2012).

Experiments:
hsEH = target: T1, hsEH (Homo sapiens, UniProt P34913); test: Fluorescence binding assay
T1 sequence (P34913 1-555): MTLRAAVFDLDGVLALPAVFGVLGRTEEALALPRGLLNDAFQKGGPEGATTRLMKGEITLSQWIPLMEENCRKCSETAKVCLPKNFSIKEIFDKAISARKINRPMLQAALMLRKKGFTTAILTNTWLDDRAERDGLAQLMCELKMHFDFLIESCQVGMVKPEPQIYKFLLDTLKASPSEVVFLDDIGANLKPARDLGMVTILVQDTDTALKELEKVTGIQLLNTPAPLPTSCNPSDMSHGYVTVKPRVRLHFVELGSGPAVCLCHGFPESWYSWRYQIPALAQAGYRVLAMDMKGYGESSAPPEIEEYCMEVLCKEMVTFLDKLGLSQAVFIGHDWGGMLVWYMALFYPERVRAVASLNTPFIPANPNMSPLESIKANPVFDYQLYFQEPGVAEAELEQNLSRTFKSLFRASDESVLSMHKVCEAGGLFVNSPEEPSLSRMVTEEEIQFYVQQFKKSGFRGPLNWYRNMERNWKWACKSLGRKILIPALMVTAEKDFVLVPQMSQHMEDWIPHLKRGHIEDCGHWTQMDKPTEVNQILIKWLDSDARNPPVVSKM

murine sEH = target: T2, murine sEH (Mus musculus, UniProt P34914); test: Fluorescence binding assay of reporter ACPU on murine sEH
T2 sequence (P34914 1-554): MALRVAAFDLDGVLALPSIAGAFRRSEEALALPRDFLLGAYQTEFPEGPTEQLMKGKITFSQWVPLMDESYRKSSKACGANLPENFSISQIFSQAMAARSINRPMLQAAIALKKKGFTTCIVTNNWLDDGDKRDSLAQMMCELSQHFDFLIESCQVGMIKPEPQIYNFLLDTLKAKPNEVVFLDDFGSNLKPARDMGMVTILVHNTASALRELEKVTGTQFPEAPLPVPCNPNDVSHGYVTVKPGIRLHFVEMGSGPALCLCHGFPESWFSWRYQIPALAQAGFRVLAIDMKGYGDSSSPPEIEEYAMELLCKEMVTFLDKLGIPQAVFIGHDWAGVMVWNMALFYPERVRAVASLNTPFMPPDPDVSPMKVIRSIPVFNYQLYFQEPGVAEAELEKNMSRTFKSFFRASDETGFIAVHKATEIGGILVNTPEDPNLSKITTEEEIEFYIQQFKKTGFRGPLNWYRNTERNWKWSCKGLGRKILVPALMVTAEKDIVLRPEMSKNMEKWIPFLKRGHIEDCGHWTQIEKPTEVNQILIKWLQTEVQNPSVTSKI

rat sEH = target: T3, rat sEH (Rattus norvegicus, UniProt P80299); test: Fluorescence binding assay of reporter ACPU on rat sEH
T3 sequence (P80299 1-554): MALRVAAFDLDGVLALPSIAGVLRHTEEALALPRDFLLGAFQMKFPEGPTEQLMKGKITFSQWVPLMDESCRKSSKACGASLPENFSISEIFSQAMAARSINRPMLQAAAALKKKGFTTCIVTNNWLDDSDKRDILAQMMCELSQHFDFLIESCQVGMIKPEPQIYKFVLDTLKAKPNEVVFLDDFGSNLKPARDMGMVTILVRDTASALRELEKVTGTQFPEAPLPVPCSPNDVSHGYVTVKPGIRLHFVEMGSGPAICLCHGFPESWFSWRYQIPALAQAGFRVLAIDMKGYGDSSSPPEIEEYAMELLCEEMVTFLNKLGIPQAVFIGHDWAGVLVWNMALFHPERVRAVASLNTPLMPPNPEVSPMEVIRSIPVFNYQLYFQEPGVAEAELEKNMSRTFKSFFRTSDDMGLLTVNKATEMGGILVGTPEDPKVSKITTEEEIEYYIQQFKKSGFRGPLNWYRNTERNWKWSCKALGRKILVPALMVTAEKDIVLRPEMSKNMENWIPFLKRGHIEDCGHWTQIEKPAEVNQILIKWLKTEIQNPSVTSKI

Kd (hsEH): 1.04 ± 0.04 nM | time needed to reach the equilibrium between ACPU and sEH (hsEH; FRET signal at 450 nm): 40 min | Kd (murine sEH): 0.1 nM | Kd (rat sEH): 0.17 nM
Structure (SMILES): O=C(NC1CCN(C(=O)Cc2cc(=O)oc3cc(O)ccc23)CC1)NC12CC3CC(CC(C3)C1)C2 [ACPU, 1-(adamantan-1-yl)-3-(1-(2-(7-hydroxy-2-oxo-2H-chromen-4-yl)acetyl)piperidin-4-yl)urea]
